What was measured:
INAc transposition = assay: 5-azacytidine as second inducer of transposition in tobacco seedlings harboring INAc; format: in vivo; settings: 0.1 mM 5-azacytidine combined with 1 mM SA
Excerpt: Other inducers. Given that 5-azacytidine was recently shown to enhance Ac excision in transformed plants (Scortecci et al., Plant Cell Physiol. 38:336-343, 1997), the use of this agent was examined as a second inducer to trigger transposition events in tobacco seedlings harboring INAc.

[1] = system: transformed tobacco plants; assay: Germination frequency of R1 progeny and fruiting of SA-treated transformed tobacco plants; format: in vivo
Procedure: (§1) An important feature of an inducible transposable element is its susceptibility to induced transposition in germinal tissue. Such susceptibility markedly increases the probability of success of transposon tagging in the isolation of important plant genes. To determine the effectiveness of INAc for gene tagging, the induction of transposition in germ-line tissue was studied using 14 transformed tobacco plants from lines IA, IM, IN, and IP. […] The R1 progeny was analyzed by comparing the germination frequency apparent on normal germination medium with that observed on germination medium containing hygromycin B, as summarized in Table 3.
Capsules are designated A through E.

[2] = system: INAc transposition (PR-1a::TPase); assay: SA induction of INAc transposition in flowering tissue; LUC assay of HygR R1 progeny; format: in vivo, tobacco
Procedure: (§2) Assay of reporter gene activities. Luciferase activity was determined as described in Howell et al., “Use of the firefly luciferase gene as a reporter of gene expression in plants,” In: Gelvin et al., eds, Plant Molecular Biology Manual, pp. B8/1-B8/11, Kluwer Academic Publishers, Dordrecht, 1989; using a Lumat LB 9501 luminometer (Berthold, Munich, Germany). For imaging of luciferase activity, hygromycin-resistant (Hyg^R) seedlings were sprayed with luciferin, incubated in the dark for 5 minutes, and then placed under a charge-coupled device camera (ChemiImager 4000; Alpha Innotech, San Leandro, Calif.) for detection of luminescence. Image acquisition and processing were performed with AlphaEase software (Alpha Innotech). Exposure time was 30 minutes.
as §1, with “Analysis of SA-induced transposition in R1 progeny of transformed tobacco plants. An” for “An”, “The flowering tissues of plants were sprayed with SA at concentrations of 50, 5, or 1 mM, and after 2 hours these tissues were watered to remove SA. […] The” for “The”
The proportion of LUC^+ seedlings after selection with hygromycin B was next determined. […] A large proportion of LUC^+ seedlings was apparent for transformed plants treated with SA (Table 3).
With this approach, the efficiency of INAc transposition was determined to be 0.2, 0.7, and 3.1% for transformed plants treated with 1, 5, and 50 mM SA, respectively, as shown in Table 4.

[3] = system: INAc transposition (PR-1a::TPase); assay: SA induction of INAc transposition in transgenic tobacco calli (luciferase activity of regenerated shoots); format: cell-based; settings: for shoots exhibiting high luciferase activity: line IK; for shoots with luciferase activity (transposition frequency): lines IA, IC, IM1, IN1, IP1, IR1; for shoots exhibiting luciferase activity out of shoots from SA-treated calli: 0.1 and 1 mM SA pooled
Procedure: as §2
Induction of INAc transposition. […] The effect of SA on INAc transposition was determined by incubating Hyg^R calli with a diameter of 0.5 to 1 cm for various times on callus regeneration medium containing either 0.1 or 1 mM SA. The calli for the transformed lines IA, IC, and IK were directly divided from the primary regenerated calli, which were large and generated many primary transformed shoots. For transformed lines IF, IM, IN, IP, and IR, the calli were obtained from the primary transformants IF1, IM1, IN1, IP1, and IR1. Leaf disks were excised and incubated on callus regeneration medium to yield enough calli for induction experiments. The calli were treated with 0.1 mM SA for 60 days, or were incubated with 1 mM SA for 10 days and then transferred to normal callus regeneration medium for an additional 50 days. As a control, calli were incubated on normal callus regeneration medium for 60 days. Luciferase activity was measured in the shoots that developed from the calli during incubation and was expressed as −, +, ++, or +++ as described in Table 2.
The numerical values in Table 2 indicate the number of LUC^+ shoots that were regenerated from SA-treated tobacco calli. Symbols denoting the amount of luciferase activity (RLU per microgram of total protein) are as follows: (−) <50 (with no typical luciferase activity kinetics); (+) 50 to 500 RLU; (++) 500 to 5000 RLU; and (+++)>5000 RLU.

## Nc1ncn([C@@H]2O[C@H](CO)[C@@H](O)[C@H]2O)c(=O)n1 [5-azacytidine]
INAc transposition
  transposition efficiency versus treatment with SA alone: higher

## O=C(O)c1ccccc1O [SA, salicylic acid]
[1]; 50 mM SA sprayed on flowering tissues, watered off after 2 hours
  frequency of fruiting: marked decrease
[1]; 50 mM SA, plants IA5 and IP6
  germination frequency of R1 progeny: low germination frequencies
[2]; 1 mM SA, mean of tobacco lines IA, IM, IN, IP
  S: Percentage of Hyg R progeny that were LUC+: 29%
[2]; 1 mM SA, of 1021 seedlings
  number of seedlings showing high luciferase activity: 2 seedlings
[2]; 1 mM SA, tobacco line IA
  S: Percentage of Hyg R progeny that were LUC+: 33%
[2]; 1 mM SA, tobacco line IA (plant IA7)
  G: Percentage of Hyg R progeny that exhibited high luciferase activity: 0.4%
[2]; 1 mM SA, tobacco line IM
  S: Percentage of Hyg R progeny that were LUC+: 11%
[2]; 1 mM SA, tobacco line IM (plant IM4)
  G: Percentage of Hyg R progeny that exhibited high luciferase activity: 0.4%
[2]; 1 mM SA, tobacco line IN
  G: Percentage of Hyg R progeny that exhibited high luciferase activity: 0%
  S: Percentage of Hyg R progeny that were LUC+: 9%
[2]; 1 mM SA, tobacco line IP
  G: Percentage of Hyg R progeny that exhibited high luciferase activity: 0%
  S: Percentage of Hyg R progeny that were LUC+: 62%
[2]; 5 mM SA, capsule B of plant IP9
  HygR seedlings exhibiting high luciferase activity out of seedlings screened: 12 out of 202
[2]; 5 mM SA, mean of tobacco lines IA, IM, IN, IP
  S: Percentage of Hyg R progeny that were LUC+: 47%
[2]; 5 mM SA, of 1000 seedlings
  number of seedlings showing high luciferase activity: 7 seedlings
[2]; 5 mM SA, tobacco line IA
  S: Percentage of Hyg R progeny that were LUC+: 60%
[2]; 5 mM SA, tobacco line IA (plant IA6)
  G: Percentage of Hyg R progeny that exhibited high luciferase activity: 0.4%
[2]; 5 mM SA, tobacco line IM
  S: Percentage of Hyg R progeny that were LUC+: 45%
[2]; 5 mM SA, tobacco line IM (plant IM5)
  G: Percentage of Hyg R progeny that exhibited high luciferase activity: 0.8%
[2]; 5 mM SA, tobacco line IN
  G: Percentage of Hyg R progeny that exhibited high luciferase activity: 0%
  S: Percentage of Hyg R progeny that were LUC+: 15%
[2]; 5 mM SA, tobacco line IP
  S: Percentage of Hyg R progeny that were LUC+: 68%
[2]; 5 mM SA, tobacco line IP (plant IP9)
  G: Percentage of Hyg R progeny that exhibited high luciferase activity: 1.6%
[2]; 50 mM SA, mean of tobacco lines IA, IP
  S: Percentage of Hyg R progeny that were LUC+: 75%
[2]; 50 mM SA, of 32 seedlings
  number of seedlings showing high luciferase activity: 1 seedling
[2]; 50 mM SA, tobacco line IA
  S: Percentage of Hyg R progeny that were LUC+: 70%
[2]; 50 mM SA, tobacco line IA (plant IA5)
  G: Percentage of Hyg R progeny that exhibited high luciferase activity: 3.7%
[2]; 50 mM SA, tobacco line IP
  G: Percentage of Hyg R progeny that exhibited high luciferase activity: 0%
  S: Percentage of Hyg R progeny that were LUC+: 100%
[2]; 1, 5, 50 mM SA
  effect of SA concentration on frequency of LUC+ seedlings / transposition events in floral tissues: dose-dependent manner
[2]; plant 1M5, flowers sprayed 5 mM SA, R1 progeny, capsules A-E in successive rows
  LUC assay: LUC+ seedlings (activity class)/HygR seedlings assayed: 30+152
[2]; plants exposed to SA (1, 5 or 50 mM) pooled, 785 out of 2053 seedlings
  seedlings exhibiting luciferase activity: 38%
[2]; plants exposed to SA (1, 5 or 50 mM) pooled, of 2053 seedlings
  number of seedlings showing high luciferase activity: 10 seedlings
[3]; 0.1 mM SA, IA and IP1 calli, two out of nine shoots
  shoots exhibiting medium (++) luciferase activity: 22%
[3]; 0.1 mM SA, 1 out of 9 shoots
  shoots exhibiting high luciferase activity: 11%
[3]; 0.1 mM SA, 33 out of 45 shoots
  shoots with luciferase activity (transposition frequency): 73%
[3]; 0.1 mM SA, tobacco calli
  induction of PR-1a::TPase expression and transposition events: sufficient to induce the expression of PR-1a::TPase
[3]; 1 mM SA, IA and IP1 calli, 13 out of 25 shoots
  shoots exhibiting medium (++) or high (+++) luciferase activity: 52%
[3]; 1 mM SA, 4 out of 16 shoots
  shoots exhibiting high luciferase activity: 25%
[3]; 1 mM SA, 27 out of 70 shoots
  shoots with luciferase activity (transposition frequency): 39%
[3]; tobacco callus IC, presence of SA
  luciferase activity in shoots regenerated from callus: not detected
[3]; tobacco line IK
  luciferase activities of induced shoots versus uninduced shoots: slightly higher
[3]; tobacco line IM1
  shoots exhibiting luciferase activity out of shoots from SA-treated calli: 11 out of 24
[3]; tobacco line IN1
  shoots exhibiting luciferase activity out of shoots from SA-treated calli: 11 out of 20
[3]; tobacco line IP
  shoots exhibiting luciferase activity out of shoots from SA-treated calli: 15 out of 17
[3]; tobacco line IR1
  shoots exhibiting luciferase activity out of shoots from SA-treated calli: 12 out of 20
